19 compounds from patent US7446199B2, “Compositions useful as inhibitors of protein kinases” (Vertex Pharmaceuticals Incorporated, priority 2003, dated 2008) can be followed below.

Molecules are shown by their SMILES.

Holding throughout (assay type): biochemical
For one assay, the target named is T1, c-KIT (Homo sapiens, UniProt P10721).
T1 construct: 0.02% BSA and 25 nM c-KIT
Description: Inhibition of c-KIT, radiometric filter-binding assay. The note with it: 700 μM ATP, 0.5 mg/mL pE4Y, room temperature. In short, it runs like this: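 Radiometric filter-binding: 25 nM c-KIT (enzyme in the Solution 2 mix) with poly(Glu,Tyr) 4:1 substrate at 0.5 mg/mL and [γ-^33P]ATP at 700 μM (both final), in HEPES pH 7.5/MgCl2/NaCl/DTT/BSA with 2.5% DMSO. Incubated 20 min at room temperature, stopped with TCA, and ^33P incorporation counted on filters. 12-point titration, final compound typically 0.01-5 μM; IC50 or Ki from curve fit.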

The next assay concerns the target KDR (Homo sapiens, UniProt P35968). Kind of assay: KDR enzyme assay, coupled enzyme assay. The note with it: 300 μM ATP, 10 μM poly E4Y, 30 nM KDR, 37° C. In short, it runs like this:
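Coupled enzyme (PK/LDH, NADH) assay with 30 nM KDR in 200 mM HEPES 7.5, 10 mM MgCl2, 25 mM NaCl, 1 mM DTT, 1.5% DMSO; 300 μM ATP, 10 μM poly E4Y. Compound at 30 μM final, preincubated ~10 min at 37 °C before ATP start; rates read over 5 min at 37 °C.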

In a further assay the target is T2, JAK3 (Homo sapiens, UniProt P52333).
T2 sequence (P52333 1-1124): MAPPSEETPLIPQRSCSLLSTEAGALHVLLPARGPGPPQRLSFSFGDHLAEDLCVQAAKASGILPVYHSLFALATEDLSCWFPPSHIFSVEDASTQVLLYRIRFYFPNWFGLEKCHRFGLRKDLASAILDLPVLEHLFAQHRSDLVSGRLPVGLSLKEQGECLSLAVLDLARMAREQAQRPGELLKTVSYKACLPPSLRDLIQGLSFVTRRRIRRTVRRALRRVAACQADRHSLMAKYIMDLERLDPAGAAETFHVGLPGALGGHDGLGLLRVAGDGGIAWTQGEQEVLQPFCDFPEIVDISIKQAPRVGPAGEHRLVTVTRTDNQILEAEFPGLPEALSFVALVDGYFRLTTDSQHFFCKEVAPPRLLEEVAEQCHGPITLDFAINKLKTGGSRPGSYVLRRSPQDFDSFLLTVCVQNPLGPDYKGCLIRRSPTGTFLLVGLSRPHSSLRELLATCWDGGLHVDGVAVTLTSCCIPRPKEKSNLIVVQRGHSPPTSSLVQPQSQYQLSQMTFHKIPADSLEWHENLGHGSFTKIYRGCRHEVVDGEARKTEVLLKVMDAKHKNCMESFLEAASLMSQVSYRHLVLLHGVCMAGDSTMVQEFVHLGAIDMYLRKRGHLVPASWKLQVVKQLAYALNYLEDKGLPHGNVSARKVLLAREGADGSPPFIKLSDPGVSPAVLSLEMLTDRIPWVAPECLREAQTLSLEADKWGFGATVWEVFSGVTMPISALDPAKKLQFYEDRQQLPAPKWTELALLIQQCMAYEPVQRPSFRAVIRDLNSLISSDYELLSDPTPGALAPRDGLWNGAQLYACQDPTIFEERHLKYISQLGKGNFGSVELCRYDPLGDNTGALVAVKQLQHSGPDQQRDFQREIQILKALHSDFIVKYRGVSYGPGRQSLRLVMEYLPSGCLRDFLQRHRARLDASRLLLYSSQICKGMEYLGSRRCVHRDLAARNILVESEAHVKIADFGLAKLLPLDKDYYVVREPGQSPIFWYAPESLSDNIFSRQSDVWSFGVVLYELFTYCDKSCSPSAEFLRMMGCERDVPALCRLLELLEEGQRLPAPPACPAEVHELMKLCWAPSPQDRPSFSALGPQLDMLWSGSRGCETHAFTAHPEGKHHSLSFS
Kind of assay: JAK3 inhibition assay (ELISA, Poly (Glu, Ala, Tyr) coated plates). The note with it: 2 mM ATP, 60 minutes at 30° C. Summed up: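 ELISA on Poly(Glu,Ala,Tyr) 6:3:1-coated plates with 2 mM ATP and 5 mM MgCl2. JAK enzyme started the reaction, run 60 min at 30° C. Phosphotyrosine was detected with HRP-conjugated 4G10 antibody and TMB, read at 450 nm, and IC50 was derived from optical densities.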

T1 sequence (P10721 26-976): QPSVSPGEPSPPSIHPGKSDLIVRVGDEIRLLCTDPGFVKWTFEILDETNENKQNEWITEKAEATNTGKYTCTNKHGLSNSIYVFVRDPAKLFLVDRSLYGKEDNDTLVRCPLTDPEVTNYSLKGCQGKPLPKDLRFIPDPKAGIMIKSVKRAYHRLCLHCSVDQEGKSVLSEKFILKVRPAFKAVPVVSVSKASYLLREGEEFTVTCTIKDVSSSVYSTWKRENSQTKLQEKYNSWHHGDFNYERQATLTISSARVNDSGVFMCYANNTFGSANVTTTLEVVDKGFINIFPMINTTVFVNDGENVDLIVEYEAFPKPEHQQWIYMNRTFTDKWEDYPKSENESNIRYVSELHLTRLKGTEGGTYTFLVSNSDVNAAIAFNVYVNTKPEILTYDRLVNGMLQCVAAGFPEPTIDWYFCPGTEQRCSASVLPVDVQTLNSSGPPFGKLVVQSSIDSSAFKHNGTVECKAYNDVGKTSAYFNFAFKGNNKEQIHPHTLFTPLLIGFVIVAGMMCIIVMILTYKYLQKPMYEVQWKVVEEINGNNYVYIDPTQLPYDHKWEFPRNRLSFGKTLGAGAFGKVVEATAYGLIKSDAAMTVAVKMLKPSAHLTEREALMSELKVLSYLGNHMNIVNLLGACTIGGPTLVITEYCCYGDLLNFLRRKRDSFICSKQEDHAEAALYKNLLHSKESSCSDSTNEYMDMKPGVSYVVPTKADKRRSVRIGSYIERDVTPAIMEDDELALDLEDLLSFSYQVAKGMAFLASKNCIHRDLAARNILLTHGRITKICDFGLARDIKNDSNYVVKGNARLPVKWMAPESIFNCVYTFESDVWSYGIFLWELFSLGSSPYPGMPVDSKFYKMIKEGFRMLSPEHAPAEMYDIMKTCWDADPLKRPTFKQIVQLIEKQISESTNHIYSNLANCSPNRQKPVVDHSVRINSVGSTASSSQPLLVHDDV
Sequence of KDR (P35968 20-1356): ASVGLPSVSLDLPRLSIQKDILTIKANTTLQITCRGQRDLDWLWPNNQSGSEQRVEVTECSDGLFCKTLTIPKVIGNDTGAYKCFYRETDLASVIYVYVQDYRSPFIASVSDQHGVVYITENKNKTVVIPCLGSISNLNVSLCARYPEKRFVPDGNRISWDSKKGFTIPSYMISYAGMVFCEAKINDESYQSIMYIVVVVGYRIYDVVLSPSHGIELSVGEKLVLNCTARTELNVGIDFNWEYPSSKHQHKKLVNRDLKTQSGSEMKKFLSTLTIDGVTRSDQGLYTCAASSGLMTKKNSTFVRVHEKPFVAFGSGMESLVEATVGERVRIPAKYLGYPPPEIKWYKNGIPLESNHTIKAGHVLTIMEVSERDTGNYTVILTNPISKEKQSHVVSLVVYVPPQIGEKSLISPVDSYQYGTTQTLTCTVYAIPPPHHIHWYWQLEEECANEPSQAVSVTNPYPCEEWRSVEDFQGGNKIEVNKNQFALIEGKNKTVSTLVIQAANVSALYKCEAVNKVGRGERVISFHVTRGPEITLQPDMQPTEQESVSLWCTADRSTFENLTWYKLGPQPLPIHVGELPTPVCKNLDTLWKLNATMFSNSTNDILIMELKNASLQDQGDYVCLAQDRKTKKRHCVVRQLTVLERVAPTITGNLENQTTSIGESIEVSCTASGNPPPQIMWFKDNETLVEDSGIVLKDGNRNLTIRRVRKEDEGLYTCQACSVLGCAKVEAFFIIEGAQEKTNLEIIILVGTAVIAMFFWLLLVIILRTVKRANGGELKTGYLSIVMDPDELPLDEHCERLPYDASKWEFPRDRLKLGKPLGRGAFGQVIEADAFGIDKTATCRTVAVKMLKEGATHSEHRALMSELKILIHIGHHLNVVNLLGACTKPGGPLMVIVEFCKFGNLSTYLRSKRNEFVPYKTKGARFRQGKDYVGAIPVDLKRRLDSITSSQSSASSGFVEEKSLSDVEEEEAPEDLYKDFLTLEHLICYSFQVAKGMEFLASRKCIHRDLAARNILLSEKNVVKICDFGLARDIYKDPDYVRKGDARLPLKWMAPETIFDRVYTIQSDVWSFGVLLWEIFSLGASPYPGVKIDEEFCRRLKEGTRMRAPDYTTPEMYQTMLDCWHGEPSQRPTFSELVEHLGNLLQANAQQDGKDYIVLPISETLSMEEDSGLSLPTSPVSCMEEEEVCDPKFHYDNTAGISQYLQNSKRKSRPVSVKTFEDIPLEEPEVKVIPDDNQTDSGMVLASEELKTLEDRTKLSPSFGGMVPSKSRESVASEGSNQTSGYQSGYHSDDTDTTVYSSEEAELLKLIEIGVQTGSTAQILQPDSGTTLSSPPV

The term Ki denotes a dissociation constant, usually derived from enzyme kinetics or from competition with a known ligand. In the case of `CN1CCN(C(=O)[C@H]2C[C@@H]2c2cnc3[nH]cc(-c4oncc4-c4cccc(F)c4F)c3c2)CC1` (relative stereo) [Compound 142, trans-(2-{3-[4-(2,3-Difluoro-phenyl)-isoxazol-5-yl]-1H-pyrrolo[2,3-b]pyridin-5-yl}-cyclopropyl)-(4-methyl-piperazin-1-yl)-methanone], the Ki on c-KIT was < 200 nM; at KDR, 200 to 1000 nM; on JAK3, 200 to 1000 nM.
In the case of `Fc1cccc(-c2cnoc2-c2n[nH]c3ncccc23)c1F` [Compound 31, 3-(4-(2,3-difluorophenyl)isoxazol-5-yl)-1H-pyrazolo[3,4-b]pyridine], the Ki at KDR and at JAK3 was 1000 to 12500 nM in each case.
`Fc1cccc(-c2cnoc2-c2c[nH]c3ccc(-c4ccncc4)cc23)c1F` [Compound 34, 3-[4-(2,3-Difluoro-phenyl)-isoxazol-5-yl]-5-pyridin-4-yl-1H-indole] displayed a Ki at JAK3 of 1000 to 12500 nM.
For `c1ccc(-c2cnoc2-c2c[nH]c3ncccc23)cc1` [Compound 35, 3-[4-Phenyl-isoxazol-5-yl]-1H-pyrrolo[2,3-b]pyridine], the Ki on KDR and on JAK3 was 200 to 1000 nM in each case.
Take `Fc1cc(F)c(F)c(-c2cnoc2-c2c[nH]c3ncccc23)c1` [Compound 39, 3-[4-(2,3,5-Trifluoro-phenyl)-isoxazol-5-yl]-1H-pyrrolo [2,3-b]pyridine]: the inhibitory constant (Ki) at KDR lay within 1000 to 12500 nM; on JAK3 it was 200 to 1000 nM.
As for `Fc1ccc(F)c(-c2cnoc2-c2c[nH]c3ncccc23)c1F` [Compound 41, 3-[4-(2,3,6-Trifluoro-phenyl)-isoxazol-5-yl]-1H-pyrrolo [2,3-b]pyridine], the Ki at KDR is 1000 to 12500 nM; on JAK3, < 200 nM.
The corresponding values for `Fc1cccc(-c2cnoc2-c2c[nH]c3ncc(Cl)cc23)c1F` [Compound 44, 3-[4-(2,3-Difluoro-phenyl)-isoxazol-5-yl]-5-chloro-1H-pyrrolo[2,3-b]pyridine] are 200 to 1000 nM and 200 to 1000 nM.
For the compound `Fc1cnc2[nH]cc(-c3oncc3-c3cccc(F)c3F)c2c1` [Compound 45, 3-[4-(2,3-Difluoro-phenyl)-isoxazol-5-yl]-5-fluoro-1H-pyrrolo[2,3-b]pyridine], the figures for the inhibitory constant (Ki) on KDR and at JAK3 were 200 to 1000 nM and 1000 to 12500 nM, respectively.
As for `Cc1cnc2[nH]cc(-c3oncc3-c3cccc(F)c3F)c2c1` [Compound 46, 3-[4-(2,3-Difluoro-phenyl)-isoxazol-5-yl]-5-methyl-1H-pyrrolo[2,3-b]pyridine], the Ki at c-KIT, on KDR and on JAK3 was 200 to 1000 nM each time.
For `OCc1cnc2[nH]cc(-c3oncc3-c3cccc(F)c3F)c2c1` [Compound 55, {3-[4-(2,3-Difluoro-phenyl)-isoxazol-5-yl]-1H-pyrrolo[2,3-b]pyridin-5-yl}-methanol], the results for the Ki on c-KIT, at KDR and at JAK3 were 200 to 1000 nM, 200 to 1000 nM and 1000 to 12500 nM, respectively.
Turning to `Fc1cccc(-c2cnoc2-c2c[nH]c3nc(Cl)c(-c4ccncc4)cc23)c1F` [Compound 103, 6-Chloro-3-[4-(2,3-difluoro-phenyl)-isoxazol-5-yl]-5-pyridin-4-yl-1H-pyrrolo[2,3-b]pyridine], the Ki on JAK3 is 1000 to 12500 nM.
Take `O=C(c1cnc2[nH]cc(-c3oncc3-c3cccc(F)c3F)c2c1)N1CCCC1` [Compound 104, {3-[4-(2,3-Difluoro-phenyl)-isoxazol-5-yl]-1H-pyrrolo[2,3-b]pyridin-5-yl}-pyrrolidin-1-yl-methanone]: the Ki on KDR lay within 200 to 1000 nM; on JAK3, 1000 to 12500 nM.
As for `COc1cnc2[nH]cc(-c3nncn3-c3cccc(F)c3F)c2c1` [Compound 108, 3-[4-(2,3-Difluoro-phenyl)-4H-[1,2,4]triazol-3-yl]-5-methoxy-1H-pyrrolo[2,3-b]pyridine], the figures for the inhibition constant (Ki) on c-KIT and at JAK3 were 200 to 1000 nM and 1000 to 12500 nM, respectively.
Consider `Fc1cccc(-n2cnnc2-c2c[nH]c3ncc(-c4ccc(N5CCNCC5)nc4)cc23)c1F` [Compound 111, 3-[4-(2,3-Difluoro-phenyl)-4H-[1,2,4]triazol-3-yl]-5-(6-piperazin-1-yl-pyridin-3-yl)-1H-pyrrolo[2,3-b]pyridine], for which the Ki on c-KIT is 200 to 1000 nM; on KDR, 1000 to 12500 nM; on JAK3 it was 1000 to 12500 nM.
Consider `Fc1cccc(-c2cnoc2-c2c[nH]c3ncc(CCn4cncn4)cc23)c1F` [Compound 132, 3-[4-(2,3-Difluoro-phenyl)-isoxazol-5-yl]-5-(2-[1,2,4]triazol-1-yl-ethyl)-1H-pyrrolo[2,3-b]pyridine], for which the Ki on KDR and on JAK3 was 1000 to 12500 nM in each case.
As for `CN(C)C1CCC(c2cnc3[nH]cc(-c4oncc4-c4cccc(F)c4F)c3c2)CC1` (stereo not shown) [Compound 141, (4-{3-[4-(2,3-Difluoro-phenyl)-isoxazol-5-yl]-1H-pyrrolo[2,3-b]pyridin-5-yl}-cyclohexyl)-dimethylamine], the Ki at c-KIT was < 200 nM; on KDR it was 1000 to 12500 nM; at JAK3, 200 to 1000 nM.
As for `NC(=O)c1ccc(-c2cnc3[nH]cc(-c4oncc4-c4cccc(F)c4F)c3c2)cc1` [Compound 153], the Ki is < 200 nM on c-KIT, 200 to 1000 nM on KDR and < 200 nM at JAK3.
For `OB(O)c1cnc2[nH]cc(-c3oncc3-c3cccc(F)c3F)c2c1` [Compound 154], the Ki at KDR and at JAK3 was < 200 nM throughout.
With `C[N+]1(C)CCN(c2ccc(-c3cnc4[nH]cc(-c5oncc5-c5cccc(F)c5F)c4c3)cc2)CC1` [Compound 155], the Ki at c-KIT, at KDR and on JAK3 was < 200 nM each time.
